Laboratory results published in PubChem BioAssay AID1963966 (Molecular Pharmacology Branch, DTP, NCI, 2024).

Test system: 935938-334-R-J1-PDC spheroids with HUVEC/MSC, viability
Assay: Anticancer human tumor 935938-334-R-J1-PDC patient-derived small intestine adenocarcinoma cell line growth inhibition [PI3K]
Details: for viability, T/C: stronger effect = lower value
Outline: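 Three cell types, namely tumor cells, endothelial cells and mesenchymal stem cells, formed each spheroid. Combinations with four PI3K inhibitors were screened at clinically achievable concentrations decreasing by half-log, and spheroid viability was recorded.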

[1] = curve of first compound, second compound 0.0316 µM
[2] = curve of first compound, second compound 0.1 µM
[3] = curve of first compound, second compound 0.316 µM
[4] = curve of first compound, second compound 1 µM
[5] = curve of first compound, second compound 3.16 µM
[6] = curve of first compound, second compound 10 µM
[7] = second compound 0.0316 µM, first compound 0.0316 µM
[8] = second compound 0.0316 µM, first compound 0.1 µM
[9] = second compound 0.0316 µM, first compound 0.316 µM
[10] = second compound 0.0316 µM, first compound 1 µM
[11] = second compound 0.0316 µM, first compound 3.16 µM
[12] = second compound 0.0316 µM, first compound 10 µM
[13] = second compound 0.1 µM, first compound 0.0316 µM
[14] = second compound 0.1 µM, first compound 0.1 µM
[15] = second compound 0.1 µM, first compound 0.316 µM
[16] = second compound 0.1 µM, first compound 1 µM
[17] = second compound 0.1 µM, first compound 3.16 µM
[18] = second compound 0.1 µM, first compound 10 µM
[19] = second compound 0.316 µM, first compound 0.0316 µM
[20] = second compound 0.316 µM, first compound 0.1 µM
[21] = second compound 0.316 µM, first compound 0.316 µM
[22] = second compound 0.316 µM, first compound 1 µM
[23] = second compound 0.316 µM, first compound 3.16 µM
[24] = second compound 0.316 µM, first compound 10 µM
[25] = second compound 1 µM, first compound 0.0316 µM
[26] = second compound 1 µM, first compound 0.1 µM
[27] = second compound 1 µM, first compound 0.316 µM
[28] = second compound 1 µM, first compound 1 µM
[29] = second compound 1 µM, first compound 3.16 µM
[30] = second compound 1 µM, first compound 10 µM
[31] = second compound 3.16 µM, first compound 0.0316 µM
[32] = second compound 3.16 µM, first compound 0.1 µM
[33] = second compound 3.16 µM, first compound 0.316 µM
[34] = second compound 3.16 µM, first compound 1 µM
[35] = second compound 3.16 µM, first compound 3.16 µM
[36] = second compound 3.16 µM, first compound 10 µM
[37] = second compound 10 µM, first compound 0.0316 µM
[38] = second compound 10 µM, first compound 0.1 µM
[39] = second compound 10 µM, first compound 0.316 µM
[40] = second compound 10 µM, first compound 1 µM
[41] = second compound 10 µM, first compound 3.16 µM
[42] = second compound 10 µM, first compound 10 µM
[43] = second compound 0.0316 µM, first compound 0.000316 µM
[44] = second compound 0.0316 µM, first compound 0.001 µM
[45] = second compound 0.0316 µM, first compound 0.00316 µM
[46] = second compound 0.0316 µM, first compound 0.01 µM
[47] = second compound 0.1 µM, first compound 0.000316 µM
[48] = second compound 0.1 µM, first compound 0.001 µM
[49] = second compound 0.1 µM, first compound 0.00316 µM
[50] = second compound 0.1 µM, first compound 0.01 µM
[51] = second compound 0.316 µM, first compound 0.000316 µM
[52] = second compound 0.316 µM, first compound 0.001 µM
[53] = second compound 0.316 µM, first compound 0.00316 µM
[54] = second compound 0.316 µM, first compound 0.01 µM
[55] = second compound 1 µM, first compound 0.000316 µM
[56] = second compound 1 µM, first compound 0.001 µM
[57] = second compound 1 µM, first compound 0.00316 µM
[58] = second compound 1 µM, first compound 0.01 µM
[59] = second compound 3.16 µM, first compound 0.000316 µM
[60] = second compound 3.16 µM, first compound 0.001 µM
[61] = second compound 3.16 µM, first compound 0.00316 µM
[62] = second compound 3.16 µM, first compound 0.01 µM
[63] = second compound 10 µM, first compound 0.000316 µM
[64] = second compound 10 µM, first compound 0.001 µM
[65] = second compound 10 µM, first compound 0.00316 µM
[66] = second compound 10 µM, first compound 0.01 µM
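Note: compound exposure lasted seven days before viability was read.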
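Throughout, for viability, T/C: percent of vehicle DMSO treated spheroid viability so 100% = untreated.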

COc1c(OCCCN2CCOCC2)ccc2c3n(c(=NC(=O)c4cnc(N)nc4)nc12)CCN3
viability, T/C (compound 0.00316 µM): 87.7% [middle of 8 runs] | viability, T/C (compound 0.01 µM): 93.9% [middle of 8 runs] | viability, T/C (compound 0.0316 µM): 82.8% [middle of 8 runs] | viability, T/C (compound 0.1 µM): 52.5% [middle of 8 runs] | viability, T/C (compound 0.316 µM): 38.6% [middle of 8 runs] | viability, T/C (compound 1 µM): 39% [middle of 8 runs] | IC50 (compound alone, run of 04/25/2023): 120 nM [middle of 8 runs]

C[C@@H](NC(=O)c1ncnc(N)c1Cl)c1ncc(C(=O)Nc2cc(C(F)(F)F)c(Cl)cn2)s1 + CC(Nc1ncnc2nc[nH]c12)c1cc2cccc(Cl)c2c(=O)n1-c1ccccc1
IC50 [1]: > 10000 nM | IC50 [2]: > 10000 nM | IC50 [3]: > 10000 nM | IC50 [4]: > 10000 nM | IC50 [5]: > 10000 nM | IC50 [6]: > 10000 nM | viability, T/C [7]: 104% | viability, T/C [8]: 103% | viability, T/C [9]: 90.1% | viability, T/C [10]: 120% | viability, T/C [11]: 109% | viability, T/C [12]: 75.6% | viability, T/C [13]: 109% | viability, T/C [14]: 138% | viability, T/C [15]: 123% | viability, T/C [16]: 99.8% | viability, T/C [17]: 98.2% | viability, T/C [18]: 111% | viability, T/C [19]: 123% | viability, T/C [20]: 84.5% | viability, T/C [21]: 118% | viability, T/C [22]: 127% | viability, T/C [23]: 98.3% | viability, T/C [24]: 107% | viability, T/C [25]: 97.8% | viability, T/C [26]: 86.6% | viability, T/C [27]: 126% | viability, T/C [28]: 95.1% | viability, T/C [29]: 117% | viability, T/C [30]: 69.8% | viability, T/C [31]: 91.8% | viability, T/C [32]: 116% | viability, T/C [33]: 109% | viability, T/C [34]: 104% | viability, T/C [35]: 90% | viability, T/C [36]: 70% | viability, T/C [37]: 81.4% | viability, T/C [38]: 88.5% | viability, T/C [39]: 98.7% | viability, T/C [40]: 92.9% | viability, T/C [41]: 87.8% | viability, T/C [42]: 60.8%

CC(C)n1nc(-c2ccc3oc(N)nc3c2)c2c(N)ncnc21 + Cc1nc(NC(=O)N2CCCC2C(N)=O)sc1-c1ccnc(C(C)(C)C(F)(F)F)c1
IC50 [1]: > 100 nM | IC50 [2]: > 100 nM | IC50 [3]: 17 nM | IC50 [4]: 7.19 nM | IC50 [5]: 3.77 nM | IC50 [6]: < 0.316 nM | viability, T/C [43]: 91.5% | viability, T/C [44]: 91% | viability, T/C [45]: 81.3% | viability, T/C [46]: 93.6% | viability, T/C [7]: 64.9% | viability, T/C [8]: 51.6% | viability, T/C [47]: 89% | viability, T/C [48]: 82.1% | viability, T/C [49]: 75.9% | viability, T/C [50]: 92% | viability, T/C [13]: 68.7% | viability, T/C [14]: 54.5% | viability, T/C [51]: 83.4% | viability, T/C [52]: 72.2% | viability, T/C [53]: 92.8% | viability, T/C [54]: 54.1% | viability, T/C [19]: 54.9% | viability, T/C [20]: 35.5% | viability, T/C [55]: 66.5% | viability, T/C [56]: 74.3% | viability, T/C [57]: 66.8% | viability, T/C [58]: 42.5% | viability, T/C [25]: 37.6% | viability, T/C [26]: 27.1% | viability, T/C [59]: 51% | viability, T/C [60]: 59.8% | viability, T/C [61]: 47.8% | viability, T/C [62]: 43% | viability, T/C [31]: 27.3% | viability, T/C [32]: 28.9% | viability, T/C [63]: 35.5% | viability, T/C [64]: 37.7% | viability, T/C [65]: 61.5% | viability, T/C [66]: 35% | viability, T/C [37]: 37.3% | viability, T/C [38]: 30.1%

CC(C)n1nc(-c2ccc3oc(N)nc3c2)c2c(N)ncnc21 + CC(Nc1ncnc2nc[nH]c12)c1cc2cccc(Cl)c2c(=O)n1-c1ccccc1
IC50 [1]: > 100 nM | IC50 [2]: > 100 nM | IC50 [3]: > 100 nM | IC50 [4]: > 100 nM | IC50 [5]: > 100 nM | IC50 [6]: 71.6 nM | viability, T/C [43]: 120% | viability, T/C [44]: 104% | viability, T/C [45]: 99.8% | viability, T/C [46]: 99.1% | viability, T/C [7]: 78.6% | viability, T/C [8]: 62.9% | viability, T/C [47]: 97.3% | viability, T/C [48]: 85.9% | viability, T/C [49]: 84.5% | viability, T/C [50]: 91.3% | viability, T/C [13]: 88.3% | viability, T/C [14]: 62% | viability, T/C [51]: 78.2% | viability, T/C [52]: 85.6% | viability, T/C [53]: 83.2% | viability, T/C [54]: 96.2% | viability, T/C [19]: 72.1% | viability, T/C [20]: 57.9% | viability, T/C [55]: 111% | viability, T/C [56]: 91.7% | viability, T/C [57]: 81.5% | viability, T/C [58]: 84% | viability, T/C [25]: 82.4% | viability, T/C [26]: 47.6% | viability, T/C [59]: 87.5% | viability, T/C [60]: 74% | viability, T/C [61]: 76.7% | viability, T/C [62]: 70.4% | viability, T/C [31]: 57.6% | viability, T/C [32]: 51.2% | viability, T/C [63]: 72.7% | viability, T/C [64]: 94.1% | viability, T/C [65]: 61.5% | viability, T/C [66]: 71.5% | viability, T/C [37]: 68.5% | viability, T/C [38]: 43%

C#Cc1c(F)ccc2cc(O)cc(-c3ncc4c(N5CC6CCC(C5)N6)nc(OCC56CCCN5CC(F)C6)nc4c3F)c12 (stereo not drawn)
viability, T/C (compound 3.16 µM): 52.5% [middle of 4 runs] | viability, T/C (compound 10 µM): 43.6% [middle of 4 runs] | IC50 (curve of compound): 4.79 µM [middle of 4 runs]

C#Cc1c(F)ccc2cc(O)cc(-c3ncc4c(N5CC6CCC(C5)N6)nc(OCC56CCCN5CC(F)C6)nc4c3F)c12 (stereo not drawn) + CC(Nc1ncnc2nc[nH]c12)c1cc2cccc(Cl)c2c(=O)n1-c1ccccc1
IC50 [1]: 4520 nM | IC50 [2]: 3150 nM | IC50 [3]: 3980 nM | IC50 [4]: 2840 nM | IC50 [5]: 2230 nM | IC50 [6]: 663 nM | viability, T/C [7]: 83.8% | viability, T/C [8]: 82.3% | viability, T/C [9]: 83.2% | viability, T/C [10]: 65.5% | viability, T/C [11]: 56.8% | viability, T/C [12]: 39% | viability, T/C [13]: 99.4% | viability, T/C [14]: 97% | viability, T/C [15]: 91.9% | viability, T/C [16]: 65.5% | viability, T/C [17]: 53.3% | viability, T/C [18]: 42.9% | viability, T/C [19]: 88.8% | viability, T/C [20]: 103% | viability, T/C [21]: 89.3% | viability, T/C [22]: 74.1% | viability, T/C [23]: 54.3% | viability, T/C [24]: 37.8% | viability, T/C [25]: 76.7% | viability, T/C [26]: 73.2% | viability, T/C [27]: 60.4% | viability, T/C [28]: 52.4% | viability, T/C [29]: 57.4% | viability, T/C [30]: 39.1% | viability, T/C [31]: 82.8% | viability, T/C [32]: 82.8% | viability, T/C [33]: 110% | viability, T/C [34]: 69.8% | viability, T/C [35]: 44.5% | viability, T/C [36]: 30.3% | viability, T/C [37]: 70% | viability, T/C [38]: 73.8% | viability, T/C [39]: 60.4% | viability, T/C [40]: 44.2% | viability, T/C [41]: 36.2% | viability, T/C [42]: 34%
